# US20050090466A1, “Inhibitors of PACE4 for the treatment of arthritis” (Pharmacia & Upjohn Company LLC, priority 2003, published 2005)
# Experiments:
# [1] = system: PACE4 mRNA; test: Aggrecanase activity in TNF-α and OSM stimulated cultured human chondrocytes after PACE4 RNAi; format: cell-based; conditions: 100 nM dsRNA; human chondrocytes stimulated with TNF-α and OSM; vs stimulated controls; FIG. 1
# Description: (§1) The sequence CGGCAAUGAUUAUGACCCAtt (SEQ ID NO. 2) was selected as a sense strand for dsRNA. The corresponding antisense strand, UGGGUCAUAAUCAUUGCCGtt, (SEQ ID NO. 3) was also selected. dsRNA was synthesized commercially (Ambion, Austin, Tex. 78744-1832 USA) and 100 nM was introduced into cultured human chondrocytes and human cartilage stimulated with TNF-α and Oncostatin M (OSM). It is known that stimulation of cartilage or chondrocytes with TNF-α and OSM will induce cartilage degradation and upregulate aggrecanase. Nonsense dsRNA, that is, dsRNA with the same […], but scrambled in sequence, were introduced into cultured human chondrocytes and human cartilage explants as controls. The control groups are not expected to induce RNAi, since the dsRNA is not expected to produce an inhibitory effect on mRNA. […] 2 and SEQ ID NO. 3.
# [2] = system: PACE4 mRNA; test: Electrophoresis gel of aggrecan degradation products in TNF/OSM treated cartilage explants; format: cell-based, human; conditions: 100 nM dsRNA, vs controls, FIG. 2
# Description: FIG. 2 depicts an electrophoresis gel showing aggrecan-degradation products in untreated (lane 1), TNF/OSM treated control (lane 2) and TNF/OSM treated, PACE4 siRNA treated cartilage explants; and
# as §1
# Referring now to FIG. 2, the aggrecanase mediated cleavage of aggrecan, shown by the aggrecan derived peptide neopitope fragment AGEG (SEQ ID NO. 10) and the aggrecan derived peptide neopepitope fragment ARGS (SEQ ID NO. 11) was reduced with interfering dsRNA, as compared to controls.
# [3] = system: PACE4 mRNA; test: Glycosaminoglycan (GAG) release from TNF/OSM treated cartilage explants into the supernatant; format: cell-based, human; conditions: 100 nM dsRNA, vs nonsense dsRNA, FIG. 3
# Source text: FIG. 3 is a bar graph showing glycosaminoglycan (GAG) release from cartilage explants into the supernatant is reduced in TNF/OSM treated cartilage explants with the addition of siRNA of SEQ ID NO. 2 and SEQ ID NO. 3 (narrow shaded bar) as compared with normal control (unshaded bar) and TNF/OSM treated cartilage explants with nonsense dsRNA.
# as §1
# Glycosaminoglycan (GAG) release from proteoglycan and depressed proteoglycan synthesis are thought to be correlated with cartilage destruction in arthritis. […]
substance,measurement,setting,value
"siRNA of SEQ ID NO. 2 and SEQ ID NO. 3: dsRNA: sense strand CGGCAAUGAUUAUGACCCAtt (SEQ ID NO. 2), antisense strand UGGGUCAUAAUCAUUGCCGtt (SEQ ID NO. 3); inhibits PACE4 mRNA (sense CGGCAAUGAUUAUGACCCATT; antisense UGGGUCAUAAUCAUUGCCGTT; dsRNA with lower-case tt overhangs, chemistry of tt not given here, further chemistry not given here)",reduction in aggrecanase activity,[1],greater than eighty percent reduction
same,aggrecanase mediated cleavage of aggrecan (neoepitope fragments AGEG and ARGS),[2],reduced
same,glycosaminoglycan (GAG) release from cartilage explants into the supernatant,[3],reduced
